Holding throughout (type): cell-based, human
For assay [1], the system named is normal esophageal epithelium cell line EACN42. Kind of assay: FDA library drug sensitivity testing (CellTiter-Glo, 72 h), normal control cells. Set-up: key to DSS: modified drug sensitivity score (DSSmod) from dose-response curve fit. Particulars: EACN42 normal esophageal cells, 72 h; for DSS: drug sensitivity score; for EC50: Homo sapiens, cell viability (ATP), max test concentration 10μM. The essentials:
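HPV E6-E7-immortalized normal human esophageal epithelial cells, 1000 per well, exposed 72 h at 37 °C to drugs in duplicate from 10μM top concentration across a 20,000-fold range. Viability by ATP bioluminescence; DMSO wells as negative control; curves scored with modified drug sensitivity score (DSSmod).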

For another assay, the system named is OE33 cells. Kind of assay: FDA library drug sensitivity testing (CellTiter-Glo, 72 h). As to conditions: OE33; sDSSmod = DSSmod (patient cells) - DSSmod (normal cells). The text has this:
(§1) OE33, OE19 and SKGT2 human esophageal adenocarcinoma cell lines were obtained from the European Collection of Cell Culture ([…]). Flo1, EAC42 and EAC47 cells were established in the Capobianco Laboratory. EAC42 and EAC47 human esophageal adenocarcinoma cell lines are derived from patients undergoing surgery at the Miller School of Medicine, University of Miami. The Capobianco laboratory obtained written informed consent from all patients and approval from the Institutional Research Ethics Committee.
(§2) Drug sensitivity testing (DST) was performed as described previously. […] Individual drugs were dissolved in 100% DMSO and tested in duplicates starting at a maximal test concentration of 10μM then over a 20,000-fold concentration range to generate dose response curves. Wells with assay buffer containing DMSO served as negative controls. 1000 exponentially growing cells were seeded per well in 384-well micro-titer plates and incubated in the presence of compounds in a humidified environment at 37°C and 5% CO2. After 72 hours of treatment, cell viability was assessed by measuring ATP levels via bioluminescence (CellTiter-Glo, Promega) according to manufactures recommendations. Interpretation of curve parameters was performed according to the modified drug sensitivity scoring (DSSmod) function developed by Swords et al. […] Given in this way, the sDSSmod incorporated information on each drug’s potency, efficacy, effect range and therapeutic index, making it possible to prioritize compounds over multiple parameters using a single numerical metric. […] All calculations and scoring routines are implemented in MatLab and additional curve fitting and statistical analyses are performed in GraphPad prism.
On the technique in general: Cellular ATP, detected with luciferase, serves as a proxy for viable cell number.

The next assay deals with EAC42 cells. The assay is described as above. As to conditions: EAC42; sDSSmod = DSSmod (patient cells) - DSSmod (normal cells).
Text: as §1, §2

The test system of a further assay is EAC47 cells. The assay is described as above. As to conditions: EAC47; sDSSmod = DSSmod (patient cells) - DSSmod (normal cells).
Text: as §1, §2

Another assay deals with OE19 cells. The assay is described as above. Particulars: sDSSmod = DSSmod (patient cells) - DSSmod (normal cells).
Text: as §1, §2

Another assay relates to SK-GT2 cells. The assay is described as above. As to conditions: SK-GT2; sDSSmod = DSSmod (patient cells) - DSSmod (normal cells).
Text: as §1, §2

Counter-ions that a name gives are not always drawn.

For `COc1ccccc1OCC(O)CN1CCN(CC(=O)Nc2c(C)cccc2C)CC1` (centres unmarked) [Ranolazine], in assay [1], the DSS stood at 0. For the same compound, in the assay with OE33 cells, the sDSSmod was 25.89.
Usually EC50 stands for the midpoint of the concentration-response curve. Turning to `S=c1[nH]cnc2nc[nH]c12` [Mercaptopurine], in assay [1], the EC50 is over 10 µM and the DSS was determined as 0.05. Further, the sDSSmod in the assay on EAC42 cells stood at 10.48. Besides, in the assay on EAC47 cells, the sDSSmod is reported as 10.9.
`CNC(=O)CN(CCN(CCN(CC(=O)[O-])CC(=O)NC)CC(=O)[O-])CC(=O)[O-].[Gd+3]` [Gadodiamide]: the DSS in assay [1] is 0. Further, the sDSSmod with OE33 cells is recorded as 29.62.
Take `CC(=O)[C@]1(O)Cc2c(O)c3c(c(O)c2[C@@H](O[C@H]2C[C@H](N)[C@H](O)[C@H](C)O2)C1)C(=O)c1ccccc1C3=O` [Idarubicin HCl]: the EC50 in assay [1] was 0.71 µM. In assay [1], this compound gave a DSS of 26.1. Also, the sDSSmod in the assay on EAC42 cells is listed as 6.506; with OE19 cells it was -22.4296; in the assay with OE33 cells, 15.06; with SK-GT2 cells, -17.1644.
Consider `NS(=O)(=O)OC[C@@H]1C[C@@H](n2ccc3c(N[C@H]4CCc5ccccc54)ncnc32)C[C@@H]1O` [MLN-4924], for which, in assay [1], the EC50 is over 10 µM and the DSS was 0.51. This compound also showed a sDSSmod with EAC42 cells of 17.05. In the assay on EAC47 cells, the sDSSmod was found to be 10.87.
Regarding `Nc1ccn([C@@H]2O[C@H](CO)[C@@H](O)[C@@H]2O)c(=O)n1` [Cytarabine], in assay [1], the EC50 is over 10 µM and the DSS was 1.34. In the assay with OE33 cells, this compound yielded a sDSSmod of 6.525.
In assay [1], `C#Cc1cccc(Nc2ncnc3cc(OCCOC)c(OCCO)cc23)c1.Cl` [Desmethyl Erlotinib] had a DSS of 3.34. Further, the sDSSmod with OE33 cells is listed as 8.648; in the assay on SK-GT2 cells, 11.77.
Compound `COc1cc2c(Nc3ccc(Br)cc3F)ncnc2cc1OCC1CCN(C)CC1` [Vandetanib] displayed an EC50 in assay [1] of 4.46 µM. Also, the DSS in assay [1] is on record as 0.13. The values for the sDSSmod in the assay on OE19 cells, in the assay on OE33 cells and in the assay on SK-GT2 cells were 7.027, 8.255 and 7.721, respectively.
As to `C=CC(=O)N1CCC[C@@H](n2nc(-c3ccc(Oc4ccccc4)cc3)c3c(N)ncnc32)C1` [Ibrutinib], the DSS in assay [1] is 0. The results for the sDSSmod in the assay with OE19 cells and in the assay with SK-GT2 cells were 31.18 and 39.31, respectively.
Turning to `Nc1nc(Cl)nc2c1ncn2[C@H]1C[C@H](O)[C@@H](CO)O1` [Cladribine], the DSS in assay [1] stood at 0.13. Moreover, the sDSSmod was 7.959 with EAC42 cells and 5.947 with EAC47 cells.
Consider `CCCCCCNC(=O)n1cc(F)c(=O)[nH]c1=O` [Carmofur], for which, in assay [1], the EC50 came to 0.71 µM and the DSS turned out to be 4.76. In addition, in the assay on OE33 cells, the sDSSmod came out at 12.42.
In assay [1], `O=c1[nH]cc(F)c(=O)[nH]1` [Adrucil] gave an EC50 of 0.92 µM and a DSS of 4.47. The compound also returned a sDSSmod in the assay with OE33 cells of 10.56.
Compound `Cn1cnc([N+](=O)[O-])c1Sc1ncnc2nc[nH]c12` [Azathioprine] returned a DSS in assay [1] of 0.02. For the same compound, the sDSSmod is 6.181 in the assay on EAC42 cells, 7.783 in the assay on EAC47 cells and 5.733 with SK-GT2 cells.
Consider `COc1cccc2c1C(=O)c1c(O)c3c(c(O)c1C2=O)C[C@@](O)(C(=O)CO)C[C@@H]3O[C@H]1C[C@H](N)[C@@H](O)[C@H](C)O1` [Epirubicin Hydrochloride], for which the EC50 in assay [1] is 1.2 µM. The same compound registered a DSS in assay [1] of 18.98. Also, the sDSSmod in the assay on OE19 cells was -11.4055; with OE33 cells it was 6.778; with SK-GT2 cells it was -9.535.
In the case of `Nc1nc2nc[nH]c2c(=S)[nH]1` [Thioguanine], it took 3.16 µM to reach a half-maximal effect in assay [1] (EC50). This compound had a DSS in assay [1] of 4.62. The sDSSmod in the assay with EAC42 cells is given as 9.961; with EAC47 cells, 8.364; in the assay on OE33 cells, 42.58; with SK-GT2 cells, 6.838.
Compound `CN(C)CCOc1ccc(/C(=C(/CCCl)c2ccccc2)c2ccccc2)cc1` [Toremifene Citrate] showed a DSS in assay [1] of 0. For the same compound, in the assay on OE33 cells, the sDSSmod is recorded as 23.6335.
As to `COc1cc([C@@H]2c3cc4c(cc3[C@@H](O[C@@H]3O[C@@H]5CO[C@@H](C)O[C@H]5[C@H](O)[C@H]3O)[C@H]3COC(=O)[C@H]23)OCO4)cc(OC)c1O` [Etoposide], in assay [1], the EC50 was over 10 µM and the DSS worked out at 4.68. This compound also gave a sDSSmod with EAC42 cells of 5.049. In the assay with OE33 cells, the sDSSmod amounted to 6.55.
`CN(Cc1cnc2nc(N)nc(N)c2n1)c1ccc(C(=O)N[C@@H](CCC(=O)O)C(=O)O)cc1` [Abitrexate, Methotrexate]: in assay [1], the EC50 was 0.04 µM. The DSS in assay [1] is listed as 21.14. For the same compound, the sDSSmod is recorded as 31.2825 in the assay on EAC42 cells, 35.78 with EAC47 cells, -21.1435 in the assay with OE19 cells and 16.69 in the assay with OE33 cells.
Compound `CO[C@H]1C[C@@H]2CC[C@@H](C)[C@@](O)(O2)C(=O)C(=O)N2CCCC[C@H]2C(=O)O[C@H]([C@H](C)C[C@@H]2CC[C@@H](OCCO)[C@H](OC)C2)CC(=O)[C@H](C)/C=C(\C)[C@@H](O)[C@@H](OC)C(=O)[C@H](C)C[C@H](C)/C=C/C=C/C=C/1C` [Everolimus] yielded an EC50 in assay [1] of 9 µM. The DSS in assay [1] came out at 7.57. Besides, the sDSSmod in the assay with EAC47 cells was -5.697; in the assay with OE33 cells it was -5.493; in the assay with SK-GT2 cells it was -5.054.
On to Bacitracin zinc, for which the DSS in assay [1] is on record as 0. In the assay with OE33 cells, the sDSSmod is 17.07.
Consider `O=c1c(-c2ccc(O)cc2)coc2cc(O)cc(O)c12` [Genistein], for which the EC50 in assay [1] is over 10 µM. Moreover, the DSS in assay [1] was found to be 0.04. The sDSSmod with OE33 cells was found to be 5.079; with SK-GT2 cells, 5.117.
`O=c1oc2c(O)c(O)cc3c(=O)oc4c(O)c(O)cc1c4c23` [Ellagic acid]: in assay [1], the DSS stood at 0. In addition, the sDSSmod in the assay with OE33 cells came out at 7.542.
Consider `O=c1[nH]c(=O)n([C@H]2C[C@H](O)[C@@H](CO)O2)cc1F` [Floxuridine], for which, in assay [1], the response was half-maximal at 0.83 µM (EC50). In addition, in assay [1], the DSS was 4.9. The sDSSmod was 40.61 in the assay on EAC42 cells, 35.54 with EAC47 cells and 13.67 with OE33 cells.
For `CC(C)c1nc(CN(C)C(=O)N[C@@H](CCN2CCOCC2)C(=O)N[C@H](CC[C@H](Cc2ccccc2)NC(=O)OCc2cncs2)Cc2ccccc2)cs1` [Cobicistat], the DSS in assay [1] turned out to be 0. The same compound showed a sDSSmod with SK-GT2 cells of 7.685.
In the case of `Nc1nc(O)c2[nH]nnc2n1` [Azaguanine-8], in assay [1], the DSS was found to be 2.04. Moreover, the sDSSmod amounted to 6.077 in the assay on EAC42 cells and 8.322 in the assay with OE33 cells.
As to `C[C@H](NC(=O)Cc1cc(F)cc(F)c1)C(=O)N[C@H](C(=O)OC(C)(C)C)c1ccccc1` [DAPT], in assay [1], the DSS is 0. The sDSSmod in the assay on SK-GT2 cells is 13.54.
Compound `C[C@@H](Oc1cc(-c2cnn(C3CCNCC3)c2)cnc1N)c1c(Cl)ccc(F)c1Cl` [Crizotinib] returned an EC50 in assay [1] of 8.03 µM. Moreover, the sDSSmod in the assay with OE33 cells is reported as 22.74.
In assay [1], `O=S(=O)(O)CCS` [Mesna] showed a DSS of 0. In addition, in the assay on SK-GT2 cells, the sDSSmod amounted to 8.021.
With `Nc1ncn([C@@H]2O[C@H](CO)[C@@H](O)[C@H]2O)c(=O)n1` [Azacitidine], the DSS in assay [1] is 0. The compound also had a sDSSmod in the assay on OE33 cells of 23.96.
As to `COc1cc2nccc(Oc3ccc(NC(=O)C4(C(=O)Nc5ccc(F)cc5)CC4)cc3)c2cc1OC` [Cabozantinib], the DSS in assay [1] is reported as 0. In addition, the sDSSmod with OE33 cells is 19.55.

The record behind these values is article PMC6136712, “Ex vivo drug sensitivity testing as a means for drug repurposing in esophageal adenocarcinoma” (PLoS ONE, 2018).
